Laboratory results taken from PubChem BioAssay (NCI).
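Growth conditions: 96-well plates. Treatment: test compound, 48 hours, 5 concentrations. Analysis: linear interpolation between bracketing concentrations; unreached endpoints set to highest concentration. Abbreviation: GI50, concentration required for 50% inhibition of growth. Definition used: TGI = concentration required for complete inhibition of growth.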

Assays:
Assay in all cases: growth of human tumour cells (NCI), 48 h
HCC-2998 colon = tested on: HCC-2998 colon
NCI-H23 lung = tested on: NCI-H23 lung
OVCAR-5 ovarian = tested on: OVCAR-5 ovarian
TK-10 renal = tested on: TK-10 renal
A549 NSCLC = tested on: A549 NSCLC
DU-145 prostate = tested on: DU-145 prostate
BT-549 breast = tested on: BT-549 breast
OVCAR-3 ovarian = tested on: OVCAR-3 ovarian
OVCAR-4 ovarian = tested on: OVCAR-4 ovarian
RXF 393 renal = tested on: RXF 393 renal
SNB-19 CNS = tested on: SNB-19 CNS
MCF7 breast = tested on: MCF7 breast
U251 CNS = tested on: U251 CNS
SNB-75 CNS = tested on: SNB-75 CNS
SF-295 CNS = tested on: SF-295 CNS
HCT-15 colon = tested on: HCT-15 colon
HCT-116 colon = tested on: HCT-116 colon
UO-31 renal = tested on: UO-31 renal
KM12 colon = tested on: KM12 colon
SR leukemia = tested on: SR leukemia
UACC-257 melanoma = tested on: UACC-257 melanoma
SF-268 CNS = tested on: SF-268 CNS
NCI-H226 lung = tested on: NCI-H226 lung
MDA-MB-435 = tested on: MDA-MB-435
SW-620 colon = tested on: SW-620 colon
SK-MEL-28 melanoma = tested on: SK-MEL-28 melanoma
HT29 colon = tested on: HT29 colon
HOP-62 NSCLC = tested on: HOP-62 NSCLC
MDA-MB-231 breast = tested on: MDA-MB-231 breast
SK-MEL-5 melanoma = tested on: SK-MEL-5 melanoma
COLO 205 colon = tested on: COLO 205 colon
NCI-H460 lung = tested on: NCI-H460 lung
CCRF-CEM leukemia = tested on: CCRF-CEM leukemia
SK-MEL-2 melanoma = tested on: SK-MEL-2 melanoma
HL-60(TB) leukemia = tested on: HL-60(TB) leukemia
MOLT-4 leukemia = tested on: MOLT-4 leukemia
EKVX NSCLC = tested on: EKVX NSCLC
SF-539 CNS = tested on: SF-539 CNS
IGROV1 ovarian = tested on: IGROV1 ovarian
SN12C renal = tested on: SN12C renal
RPMI-8226 leukemia = tested on: RPMI-8226 leukemia
K-562 leukemia = tested on: K-562 leukemia
NCI/ADR-RES ovarian = tested on: NCI/ADR-RES ovarian
A498 renal = tested on: A498 renal
ACHN renal = tested on: ACHN renal
786-0 renal = tested on: 786-0 renal
OVCAR-8 ovarian = tested on: OVCAR-8 ovarian
UACC-62 melanoma = tested on: UACC-62 melanoma
NCI-H522 lung = tested on: NCI-H522 lung
PC-3 prostate = tested on: PC-3 prostate
HOP-92 NSCLC = tested on: HOP-92 NSCLC
CAKI-1 renal = tested on: CAKI-1 renal
HS 578T breast = tested on: HS 578T breast
SK-OV-3 ovarian = tested on: SK-OV-3 ovarian
LOX IMVI melanoma = tested on: LOX IMVI melanoma
MALME-3M melanoma = tested on: MALME-3M melanoma

CN1C(=O)N(C)C2C1NN=c1s/c(=C\c3ccccc3F)c(=O)n12 (stereo unspecified)
GI50 (HCC-2998 colon): 0.422 µM | TGI (HCC-2998 colon): > 100 µM | GI50 (NCI-H23 lung): 0.534 µM | TGI (NCI-H23 lung): > 100 µM | GI50 (OVCAR-5 ovarian): 0.496 µM | TGI (OVCAR-5 ovarian): > 100 µM | GI50 (TK-10 renal): > 20.8 µM | TGI (TK-10 renal): > 100 µM | GI50 (A549 NSCLC): 0.439 µM | TGI (A549 NSCLC): > 100 µM | GI50 (DU-145 prostate): 0.325 µM | TGI (DU-145 prostate): 23.9 µM | GI50 (BT-549 breast): 1.39 µM | TGI (BT-549 breast): > 100 µM | GI50 (OVCAR-3 ovarian): 0.17 µM | TGI (OVCAR-3 ovarian): 0.68 µM | GI50 (OVCAR-4 ovarian): 1.41 µM | TGI (OVCAR-4 ovarian): > 100 µM | GI50 (RXF 393 renal): 0.159 µM | TGI (RXF 393 renal): 0.491 µM | GI50 (SNB-19 CNS): 0.448 µM | TGI (SNB-19 CNS): > 100 µM | GI50 (MCF7 breast): 0.069 µM | TGI (MCF7 breast): > 100 µM | GI50 (U251 CNS): 0.356 µM | TGI (U251 CNS): > 100 µM | GI50 (SNB-75 CNS): 0.0807 µM | TGI (SNB-75 CNS): 0.547 µM | GI50 (SF-295 CNS): 0.186 µM | TGI (SF-295 CNS): > 100 µM | GI50 (HCT-15 colon): 0.145 µM | TGI (HCT-15 colon): > 100 µM | GI50 (HCT-116 colon): 0.354 µM | TGI (HCT-116 colon): > 56.6 µM | GI50 (UO-31 renal): 0.657 µM | TGI (UO-31 renal): > 100 µM | GI50 (KM12 colon): 0.198 µM | TGI (KM12 colon): > 60.2 µM | GI50 (SR leukemia): 0.093 µM | TGI (SR leukemia): > 100 µM | GI50 (UACC-257 melanoma): > 100 µM | TGI (UACC-257 melanoma): > 100 µM | GI50 (SF-268 CNS): 1.22 µM | TGI (SF-268 CNS): > 100 µM | GI50 (NCI-H226 lung): 1.23 µM | TGI (NCI-H226 lung): > 100 µM | GI50 (MDA-MB-435): 0.0387 µM | TGI (MDA-MB-435): 0.184 µM | GI50 (SW-620 colon): 0.296 µM | TGI (SW-620 colon): > 100 µM | GI50 (SK-MEL-28 melanoma): 5.75 µM | TGI (SK-MEL-28 melanoma): > 100 µM | GI50 (HT29 colon): 0.312 µM | TGI (HT29 colon): > 36.7 µM | GI50 (HOP-62 NSCLC): 0.48 µM | TGI (HOP-62 NSCLC): > 100 µM | GI50 (MDA-MB-231 breast): 0.541 µM | TGI (MDA-MB-231 breast): > 41.6 µM | GI50 (SK-MEL-5 melanoma): 0.188 µM | TGI (SK-MEL-5 melanoma): 4.11 µM | GI50 (COLO 205 colon): 0.328 µM | TGI (COLO 205 colon): 1.43 µM | GI50 (NCI-H460 lung): 0.351 µM | TGI (NCI-H460 lung): > 100 µM | GI50 (CCRF-CEM leukemia): 0.335 µM | TGI (CCRF-CEM leukemia): > 100 µM | GI50 (SK-MEL-2 melanoma): 0.629 µM | TGI (SK-MEL-2 melanoma): > 100 µM | GI50 (HL-60(TB) leukemia): 0.224 µM | TGI (HL-60(TB) leukemia): 0.633 µM | GI50 (MOLT-4 leukemia): 0.52 µM | TGI (MOLT-4 leukemia): > 100 µM | GI50 (EKVX NSCLC): 0.398 µM | TGI (EKVX NSCLC): > 100 µM | GI50 (SF-539 CNS): 0.217 µM | TGI (SF-539 CNS): 0.639 µM | GI50 (IGROV1 ovarian): 0.633 µM | TGI (IGROV1 ovarian): > 100 µM | GI50 (SN12C renal): 0.671 µM | TGI (SN12C renal): > 100 µM | GI50 (RPMI-8226 leukemia): 0.364 µM | TGI (RPMI-8226 leukemia): > 66.8 µM | GI50 (K-562 leukemia): 0.117 µM | TGI (K-562 leukemia): > 100 µM | GI50 (NCI/ADR-RES ovarian): 0.229 µM | TGI (NCI/ADR-RES ovarian): > 100 µM | GI50 (A498 renal): 0.175 µM | TGI (A498 renal): 0.929 µM | GI50 (ACHN renal): 0.684 µM | TGI (ACHN renal): > 100 µM | GI50 (786-0 renal): 0.741 µM | TGI (786-0 renal): > 100 µM | GI50 (OVCAR-8 ovarian): 0.516 µM | TGI (OVCAR-8 ovarian): > 100 µM | GI50 (UACC-62 melanoma): 0.371 µM | TGI (UACC-62 melanoma): > 100 µM | GI50 (NCI-H522 lung): 0.229 µM | GI50 (PC-3 prostate): 0.296 µM | TGI (PC-3 prostate): > 100 µM | GI50 (HOP-92 NSCLC): 8.51 µM | TGI (HOP-92 NSCLC): > 100 µM | GI50 (CAKI-1 renal): 0.14 µM | TGI (CAKI-1 renal): > 100 µM | GI50 (HS 578T breast): 0.287 µM | TGI (HS 578T breast): > 100 µM | GI50 (SK-OV-3 ovarian): 0.446 µM | TGI (SK-OV-3 ovarian): > 100 µM | GI50 (LOX IMVI melanoma): 0.565 µM | TGI (LOX IMVI melanoma): > 100 µM | GI50 (MALME-3M melanoma): 0.325 µM | TGI (MALME-3M melanoma): > 100 µM
